# Measurements: ChEMBL document CHEMBL6083193, “Advancing drug discovery: Thiadiazole derivatives as multifaceted agents in medicinal chemistry and pharmacology” (Bioorg Med Chem, 2024)
# How the values were obtained:
# [1] = Antioxidant activity assessed as DPPH radical scavenging activity measured for 30 mins by spectrophotometric analysis; assay type: functional
# Mus musculus = test: Antiinflammatory activity against carrageenan-induced paw edema in Swiss mouse assessed as reduction in paw edema at 15 mg/kg, po relative to control; assay type: functional; parameters: scale not given: the % may be the effect or the level left
# Alpha glucosidase = Alpha glucosidase (Homo sapiens, UniProt O43451+P10253+P14410+Q2M2H8); test: Inhibition of Alpha-glucosidase (unknown origin); assay type: protein assay
# [2] = Inhibition of Alpha-amylase (unknown origin); parameters: species or system Homo sapiens
# Toxoplasma gondii = test: Antiparasitic activity against Toxoplasma gondii RH infected in human HFF cells; assay type: functional, organism-based
# MCF7 [3] = test: Anticancer activity against human MCF7 cells by MTT assay; assay type: functional, cell-based
# A549 [4] = test: Anticancer activity against human A549 cells by MTT assay; assay type: functional, cell-based
# COLO 205 [5] = test: Anticancer activity against human COLO 205 cells by MTT assay; assay type: functional, cell-based
# A2780 [6] = test: Anticancer activity against human A2780 cells by MTT assay; assay type: functional, cell-based
# A549 [7] = test: Cytotoxicity against human A549 cells assessed as reduction in cell growth; assay type: functional, cell-based
# MCF7 [8] = test: Cytotoxicity against human MCF7 cells assessed as reduction in cell viability by MTT assay; assay type: functional, cell-based
# A549 [9] = test: Cytotoxicity against human A549 cells assessed as reduction in cell viability by MTT assay; assay type: functional, cell-based
# COLO 205 [10] = test: Cytotoxicity against human COLO 205 cells assessed as reduction in cell viability by MTT assay; assay type: functional, cell-based
# A2780 [11] = test: Cytotoxicity against human A2780 cells assessed as reduction in cell viability by MTT assay; assay type: functional, cell-based
smiles,measurement,setting,value
COc1ccc(/C=C2\S/C(=N\c3nn(-c4ccccc4)nc3C(=O)Nc3nncs3)NC2=O)cc1,IC50,[1],22.63 µg/mL
Nc1nn(-c2ccccc2)nc1C(=O)Nc1nncs1,IC50,[1],39.27 µg/mL
O=C1N/C(=N\c2nnc(C34CC5CC(CC(C5)C3)C4)s2)S/C1=C\c1c(F)cccc1F,Activity,Mus musculus,66.7%
O=[N+]([O-])c1ccccc1NC(=S)Nc1nsc(Nc2cccc(C(F)(F)F)c2)n1,IC50,Alpha glucosidase,2.2 µM
same,IC50,[2],1300 nM
Cc1nc[nH]c1-c1nnc(Nc2ccc(I)cc2)s1,IC50,Toxoplasma gondii,4.7 µg/mL
Cc1nc[nH]c1-c1nnc(Nc2cccc(Cl)c2)s1,IC50,Toxoplasma gondii,4.7 µg/mL
CCc1ccc(C2SCC(=O)N2c2nnc(-c3ccccc3)s2)cc1 (stereo not drawn),IC50,Alpha glucosidase,< 500 µM
same,IC50,[2],3870 nM
COc1cccc(/C=C2\S/C(=N/c3nnc(C45CC6CC(CC(C6)C4)C5)s3)NC2=O)c1,Activity,Mus musculus,66.7%
O=[N+]([O-])c1ccc(NC(=S)Nc2nsc(Nc3ccc(Cl)cc3)n2)cc1,IC50,Alpha glucosidase,2.2 µM
same,IC50,[2],1300 nM
Cc1ccc(/C=C2\S/C(=N/c3nnc(C45CC6CC(CC(C6)C4)C5)s3)NC2=O)cc1,Activity,Mus musculus,66.7%
CN(C)c1ccc(/C=C2\S/C(=N/c3nnc(C45CC6CC(CC(C6)C4)C5)s3)NC2=O)cc1,Activity,Mus musculus,66.7%
O=C1N/C(=N/c2nn(-c3ccccc3)nc2C(=O)Nc2nncs2)S/C1=C\c1ccc(Cl)cc1,IC50,[1],22.63 µg/mL
Cc1cc(C)cc(NC(=O)c2ccc(-c3nsc(-c4csc(-c5ccncc5)n4)n3)cc2)c1,IC50,MCF7 [3],110 nM
same,IC50,A549 [4],110 nM
same,IC50,COLO 205 [5],110 nM
same,IC50,A2780 [6],110 nM
O=C(Nc1ccc(Cl)cc1)c1ccc(-c2nsc(-c3csc(-c4ccncc4)n3)n2)cc1,IC50,MCF7 [3],110 nM
same,IC50,A549 [4],110 nM
same,IC50,COLO 205 [5],110 nM
same,IC50,A2780 [6],110 nM
Fc1ccccc1NC(=S)Nc1nsc(Nc2ccc(Cl)c(Cl)c2)n1,IC50,Alpha glucosidase,2.2 µM
same,IC50,[2],1300 nM
O=C1N/C(=N\c2nnc(C34CC5CC(CC(C5)C3)C4)s2)S/C1=C\c1cccc(F)c1F,Activity,Mus musculus,66.7%
N#C/C(=N\Nc1ccccc1)C(=O)Nc1nncs1,IC50,[1],37.25 µg/mL
CCCNc1nnc(SCC(=O)N2N=C(c3ccccc3)CC2c2ccc([N+](=O)[O-])cc2)s1 (stereo not drawn),IC50,A549 [7],10 µM
Cc1nc[nH]c1-c1nnc(Nc2cccc(F)c2)s1,IC50,Toxoplasma gondii,4.7 µg/mL
Cc1nc[nH]c1-c1nnc(Nc2ccc(Br)cc2)s1,IC50,Toxoplasma gondii,4.7 µg/mL
CSc1ccc(C2SCC(=O)N2c2nnc(-c3ccccc3)s2)cc1 (stereo not drawn),IC50,Alpha glucosidase,< 500 µM
Cc1ccc(NC(=S)Nc2nsc(Nc3ccc(Cl)cc3)n2)cc1,IC50,Alpha glucosidase,2.2 µM
same,IC50,[2],1300 nM
S=C(Nc1ccc(Br)cc1)Nc1nsc(Nc2ccc(Cl)cc2)n1,IC50,Alpha glucosidase,2.2 µM
same,IC50,[2],1300 nM
O=C1N/C(=N\c2nnc(C34CC5CC(CC(C5)C3)C4)s2)S/C1=C\c1ccc(Br)cc1,Activity,Mus musculus,66.7%
O=C1N/C(=N\c2nnc(C34CC5CC(CC(C5)C3)C4)s2)S/C1=C\c1cccc([N+](=O)[O-])c1,Activity,Mus musculus,66.7%
Cc1nc[nH]c1-c1nnc(Nc2cccc(Br)c2)s1,IC50,Toxoplasma gondii,4.7 µg/mL
O=[N+]([O-])c1ccc(NC(=S)Nc2nsc(Nc3cccc([N+](=O)[O-])c3)n2)cc1,IC50,Alpha glucosidase,2.2 µM
same,IC50,[2],1300 nM
O=C1N/C(=N\c2nnc(C34CC5CC(CC(C5)C3)C4)s2)S/C1=C\c1ccc(O)cc1,Activity,Mus musculus,66.7%
O=C1N/C(=N\c2nnc(C34CC5CC(CC(C5)C3)C4)s2)S/C1=C\c1cccc(Cl)c1Cl,Activity,Mus musculus,66.7%
COc1cc(NC(=O)c2ccc(-c3nsc(-c4csc(-c5ccncc5)n4)n3)cc2)cc(OC)c1OC,IC50,MCF7 [3],110 nM
same,IC50,A549 [4],110 nM
same,IC50,COLO 205 [5],110 nM
same,IC50,A2780 [6],110 nM
same,IC50,MCF7 [8],340 nM
same,IC50,A549 [9],110 nM
same,IC50,COLO 205 [10],120 nM
same,IC50,A2780 [11],140 nM
O=C(Nc1ccc([N+](=O)[O-])cc1)c1ccc(-c2nsc(-c3csc(-c4ccncc4)n3)n2)cc1,IC50,MCF7 [3],110 nM
same,IC50,A549 [4],110 nM
same,IC50,COLO 205 [5],110 nM
same,IC50,A2780 [6],110 nM
Cc1cccc(CN2C(=O)/C(=N\Nc3nncs3)c3ccccc32)c1,IC50,Alpha glucosidase,< 500 µM
same,IC50,[2],2590 nM
O=C(Nc1cc([N+](=O)[O-])cc([N+](=O)[O-])c1)c1ccc(-c2nsc(-c3csc(-c4ccncc4)n3)n2)cc1,IC50,MCF7 [3],110 nM
same,IC50,A549 [4],110 nM
same,IC50,COLO 205 [5],110 nM
same,IC50,A2780 [6],110 nM
O=[N+]([O-])c1cccc(NC(=S)Nc2nsc(Nc3ccc(F)cc3)n2)c1,IC50,Alpha glucosidase,2.2 µM
same,IC50,[2],1300 nM
FC(F)(F)c1cccc(Nc2nc(NC(=S)Nc3ccccc3)ns2)c1,IC50,Alpha glucosidase,2.2 µM
same,IC50,[2],1300 nM
Cc1ccc(Nc2nnc(SCC(=O)N3N=C(c4ccccc4)CC3c3ccc([N+](=O)[O-])cc3)s2)cc1 (stereo not drawn),IC50,A549 [7],10 µM
COc1ccc(/C=C2\S/C(=N/c3nnc(C45CC6CC(CC(C6)C4)C5)s3)NC2=O)cc1,Activity,Mus musculus,66.7%
COc1cccc(NC(=S)Nc2nsc(Nc3ccc(Cl)c(Cl)c3)n2)c1,IC50,Alpha glucosidase,2.2 µM
same,IC50,[2],1300 nM
O=C1N/C(=N\c2nnc(C34CC5CC(CC(C5)C3)C4)s2)S/C1=C\c1ccccc1[N+](=O)[O-],Activity,Mus musculus,66.7%
O=[N+]([O-])c1cccc(Nc2nc(NC(=S)Nc3ccc(Cl)cc3Cl)ns2)c1,IC50,Alpha glucosidase,2.2 µM
same,IC50,[2],1300 nM
O=C1N/C(=N\c2nnc(C34CC5CC(CC(C5)C3)C4)s2)S/C1=C\c1ccc(Cl)cc1Cl,Activity,Mus musculus,66.7%
Cc1[nH]cnc1-c1nnc(Nc2ccc(Cl)cc2)s1,IC50,Toxoplasma gondii,4.7 µg/mL
FC(F)(F)c1cccc(Nc2nc(NC(=S)Nc3ccc(Cl)cc3)ns2)c1,IC50,Alpha glucosidase,2.2 µM
same,IC50,[2],1300 nM
COc1ccccc1NC(=S)Nc1nsc(Nc2ccc(Cl)c(Cl)c2)n1,IC50,Alpha glucosidase,2.2 µM
same,IC50,[2],1300 nM
Cc1ccc(/C=C2\S/C(=N\c3nn(-c4ccccc4)nc3C(=O)Nc3nncs3)NC2=O)cc1,IC50,[1],22.63 µg/mL
O=C1CS/C(=N\c2nn(-c3ccccc3)nc2C(=O)Nc2nncs2)N1,IC50,[1],44.35 µg/mL
CCNc1nnc(SCC(=O)N2N=C(c3ccccc3)CC2c2ccc([N+](=O)[O-])cc2)s1 (stereo not drawn),IC50,A549 [7],10 µM
O=[N+]([O-])c1ccccc1NC(=S)Nc1nsc(Nc2ccc(Cl)c(Cl)c2)n1,IC50,Alpha glucosidase,2.2 µM
same,IC50,[2],1300 nM
Cc1nc[nH]c1-c1nnc(Nc2ccccc2I)s1,IC50,Toxoplasma gondii,4.7 µg/mL
Cc1nc[nH]c1-c1nnc(Nc2ccccc2Br)s1,IC50,Toxoplasma gondii,4.7 µg/mL
CC(C)Nc1nnc(SCC(=O)N2N=C(c3ccccc3)CC2c2ccc([N+](=O)[O-])cc2)s1 (stereo not drawn),IC50,A549 [7],10 µM
Cc1[nH]cnc1-c1nnc(Nc2ccc(F)cc2)s1,IC50,Toxoplasma gondii,4.7 µg/mL
O=C1N/C(=N\c2nnc(C34CC5CC(CC(C5)C3)C4)s2)S/C1=C\c1ccccc1,Activity,Mus musculus,66.7%
O=[N+]([O-])c1cccc(NC(=S)Nc2nsc(Nc3cccc([N+](=O)[O-])c3)n2)c1,IC50,Alpha glucosidase,2.2 µM
same,IC50,[2],1300 nM
O=C(CCl)Nc1nn(-c2ccccc2)nc1C(=O)Nc1nncs1,IC50,[1],22.63 µg/mL
Cc1nc[nH]c1-c1nnc(Nc2ccccc2Cl)s1,IC50,Toxoplasma gondii,4.7 µg/mL
N#Cc1ccc(NC(=O)c2ccc(-c3nsc(-c4csc(-c5ccncc5)n4)n3)cc2)cc1,IC50,MCF7 [3],110 nM
same,IC50,A549 [4],110 nM
same,IC50,COLO 205 [5],110 nM
same,IC50,A2780 [6],110 nM
S=C(Nc1ccc(Cl)c(Cl)c1)Nc1nsc(Nc2ccc(Cl)c(Cl)c2)n1,IC50,Alpha glucosidase,2.2 µM
same,IC50,[2],1300 nM
O=C1N/C(=N\c2nnc(C34CC5CC(CC(C5)C3)C4)s2)S/C1=C\c1c(Cl)cccc1Cl,Activity,Mus musculus,66.7%
O=C1N/C(=N\c2nnc(C34CC5CC(CC(C5)C3)C4)s2)S/C1=C\c1ccc(F)cc1,Activity,Mus musculus,66.7%
O=C(CSc1nnc(NC2CCCCC2)s1)N1N=C(c2ccccc2)CC1c1ccc([N+](=O)[O-])cc1 (stereo not drawn),IC50,A549 [7],10 µM
O=C(Nc1ccc(Br)cc1)c1ccc(-c2nsc(-c3csc(-c4ccncc4)n3)n2)cc1,IC50,MCF7 [3],110 nM
same,IC50,A549 [4],110 nM
same,IC50,COLO 205 [5],110 nM
same,IC50,A2780 [6],110 nM
Cc1nc[nH]c1-c1nnc(Nc2cccc(I)c2)s1,IC50,Toxoplasma gondii,4.7 µg/mL
O=C1N/C(=N\c2nnc(C34CC5CC(CC(C5)C3)C4)s2)S/C1=C\c1ccc([N+](=O)[O-])cc1,Activity,Mus musculus,66.7%
COc1ccc(Nc2nnc(SCC(=O)N3N=C(c4ccccc4)CC3c3ccc([N+](=O)[O-])cc3)s2)cc1 (stereo not drawn),IC50,A549 [7],10 µM
CCCCNc1nnc(SCC(=O)N2N=C(c3ccccc3)CC2c2ccc([N+](=O)[O-])cc2)s1 (stereo not drawn),IC50,A549 [7],10 µM
